Two molecules from paper PMC4806491, “The milk-derived fusion peptide, ACFP, suppresses the growth of primary human ovarian cancer cells by regulating apoptotic gene expression and signaling pathways” (BMC Cancer, 2016) can be followed below.

Molecules are shown by their SMILES. Converted amounts (≈) assume the structure as drawn. Read-outs that look alike come from different tables or passages of the source. Residues, ends and D or L forms follow the SMILES beside them.

In the experiment the test system is primary ovarian cancer cells. It counts as cell-based, human. To be noted: for growth of human primary ovarian cells: different concentrations, in vitro, n=12, Figure S1. How it is done:
Fresh primary ovarian tumor tissues that were assessed and classified as serous ovarian adenocarcinoma (III-IV grade) according to WHO criteria were collected from 53 ovarian cancer patients who underwent initial debulking surgery at the first affiliated hospital of Anhui Medical University between June 2012 and June 2014. All patients had not received adjuvant therapies, such as chemotherapy or radiotherapy, prior to surgery. For comparison, normal ovarian glandular epithelium cells (NOGECs) were cultured from fresh primary normal ovarian tissues harvested from 7 patients with uterine fibromas, which were confirmed as negative for any neoplastic disease by pathological examination. Prior to tissue deposition, all patients signed written consent forms confirming their donation of tissue for research purposes according to the Declaration of Helsinki. This study was approved by the Anhui Medical University Review Board. Tumor or normal ovarian tissues were cut into small 1.0 mm^3 pieces, rinsed two times in phosphate buffered saline (PBS) and digested with 0.25 % trypsin in a sterile centrifuge tube at 37 °C for 30 min. To obtain a single cell suspension cell, digested tissues were filtered with a 100 μm cell strainer. Cells were collected by centrifugation at 1000 rpm for five minutes, and the cell pellet was re-suspended in Dulbecco’s modified eagle medium (DMEM) supplemented with 10 % fetal bovine serum (FBS). Cells were subsequently cultured in DMEM containing 0.1 mg/L epidermal growth factor (EGF), 0.1 mg/L insulin-like growth factor (IGF) and 0.1 mg/L beta-estradiol with 10 % FBS in 5 % CO2 at 37 °C. Once cells reached 70 to 80 % confluence, cell culture medium was drained from the flask, and cells were digested with 0.25 % collagenase II until approximately 1/3 of the cells fell to the bottom of the dish by eye using a microscope. Due to their initial shedding, most fibroblasts were eliminated by collagenase digestion. The remaining cells were cultured in 5 % CO2 at 37 °C. To determine purity, cells were analyzed using immunofluorescence of cytokeratin 7 (for ovarian cancer cells) or cytokeratin 19 (for normal ovarian epithelium cells).
Primary ovarian cancer cells were seeded into 96-well plates in sextuplicate at a starting density of 5 × 10^3 cells/well and incubated with ACFP at the concentrations: 0 (as control), 5 × 10^−6, 5 × 10^−5, 5 × 10^−4, 5 × 10^−3, 5 × 10^−2, 5 × 10^−1 and 5 g/L for 24, 48 and 72 h, respectively. Cells treated with paclitaxel at 5 × 10^−4 g/L were included in the same plate as a positive control. Cell viability was later measured using the WST-1 (water-soluble tetrazolium 1) cell viability and cytotoxicity assay kit (Beyotime, Haimen, China) according to the manufacturer’s instructions. The percent viability of cells was calculated using the formula to calculate the cell viability ratio (VR): VR (%) = (the experimental group A450nm value/control group A450nm value) × 100 %. To assess general toxicity of ACFP, viability of normal ovarian cells treated with ACFP was assayed using the same procedure. The effect of ACFP was compared with LfcinB and PGPIPN (the products of Shanghai Sangon Biological Engineering Technology, China). Each experiment was performed in two independent sets.

On to `CC[C@H](C)[C@H](NC(=O)[C@@H]1CCCN1C(=O)CNC(=O)[C@@H]1CCCN1)C(=O)N1CCC[C@H]1C(=O)N[C@@H](CC(N)=O)C(=O)O` [PGPIPN] (H-PGPIPN-OH), for which the “IC50, cell viability” value amounted to 14.5 µg/mL (≈ 24.4 µM) (24 h), 9.3 µg/mL (≈ 15.7 µM) (48 h) and 1.24 µg/mL (≈ 2.09 µM) (72 h). The “growth of human primary ovarian cells” value (48 h) is on record as “decreased growth”.
`CC[C@H](C)[C@@H]1NC(=O)[C@H](CO)NC(=O)[C@@H]2CCCN2C(=O)[C@H](C)NC(=O)CNC(=O)[C@H](CC(C)C)NC(=O)[C@H](CCCCN)NC(=O)[C@H](CCCCN)NC(=O)[C@H](CCSC)NC(=O)[C@H](CCCNC(=N)N)NC(=O)[C@H](Cc2c[nH]c3ccccc23)NC(=O)[C@H](CCC(N)=O)NC(=O)[C@H](Cc2c[nH]c3ccccc23)NC(=O)[C@H](CCCNC(=N)N)NC(=O)[C@H](CCCNC(=N)N)NC(=O)[C@@H](NC(=O)[C@H](CCCCN)NC(=O)[C@@H](N)Cc2ccccc2)CSSC[C@@H](C(=O)N[C@H](C(=O)N[C@@H](CCCNC(=N)N)C(=O)N[C@@H](CCCNC(=N)N)C(=O)N[C@@H](C)C(=O)N[C@@H](Cc2ccccc2)C(=O)O)C(C)C)NC(=O)[C@H]([C@@H](C)O)NC1=O` [LfcinB]: under “48 h”, the “growth of human primary ovarian cells” value was “decreased growth”.
